According to patent US9938269B2, “Inhibitor compounds of phosphodiesterase type 10A” (ABBVIE INC., priority 2011, dated 2018):
Where a name gives a salt, the structure may show the parent alone.

What was measured:
[1] = in vitro; settings: human, microsomes, pH 7.4
[2] = in vitro; settings: rat, microsomes, pH 7.4
[3] = target: T1, PDE10A (human) (Homo sapiens, UniProt Q9Y233); assay: Measurement of PDE activity (HTRF cAMP kit), human PDE10A; assay type: biochemical; settings: PDE enzymatic reaction, substrate 20 nM for PDE10, 60 minutes at 29 C
T1 construct: purchased BPS Bioscience
T1 sequence (Q9Y233 whole entry): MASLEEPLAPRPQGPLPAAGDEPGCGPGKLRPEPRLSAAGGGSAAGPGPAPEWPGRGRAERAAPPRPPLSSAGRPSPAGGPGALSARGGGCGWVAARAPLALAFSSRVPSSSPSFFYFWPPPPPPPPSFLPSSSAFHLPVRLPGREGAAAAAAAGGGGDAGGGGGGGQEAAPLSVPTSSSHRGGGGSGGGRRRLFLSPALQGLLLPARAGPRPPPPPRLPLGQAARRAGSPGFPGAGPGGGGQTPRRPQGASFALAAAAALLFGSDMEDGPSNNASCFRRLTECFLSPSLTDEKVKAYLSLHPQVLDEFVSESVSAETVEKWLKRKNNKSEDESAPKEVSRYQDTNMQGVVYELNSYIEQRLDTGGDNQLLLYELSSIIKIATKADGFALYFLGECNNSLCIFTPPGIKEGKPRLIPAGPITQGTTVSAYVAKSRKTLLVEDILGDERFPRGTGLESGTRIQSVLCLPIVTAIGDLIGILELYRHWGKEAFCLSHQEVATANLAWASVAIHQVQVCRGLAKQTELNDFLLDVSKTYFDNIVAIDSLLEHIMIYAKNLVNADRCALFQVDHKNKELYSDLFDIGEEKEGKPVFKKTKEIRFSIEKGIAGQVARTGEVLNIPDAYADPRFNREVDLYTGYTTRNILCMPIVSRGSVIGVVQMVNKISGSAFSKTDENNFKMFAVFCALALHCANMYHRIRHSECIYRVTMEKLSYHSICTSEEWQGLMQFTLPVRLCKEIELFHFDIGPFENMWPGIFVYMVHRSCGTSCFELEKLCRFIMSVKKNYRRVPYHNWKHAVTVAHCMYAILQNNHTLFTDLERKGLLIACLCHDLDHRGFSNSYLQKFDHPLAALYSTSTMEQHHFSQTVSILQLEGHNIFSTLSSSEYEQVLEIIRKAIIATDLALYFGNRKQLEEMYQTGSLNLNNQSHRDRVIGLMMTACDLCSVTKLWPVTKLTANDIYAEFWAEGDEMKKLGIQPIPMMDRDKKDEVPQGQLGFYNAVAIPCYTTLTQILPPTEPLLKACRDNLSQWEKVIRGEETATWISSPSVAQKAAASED
How it was run: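 Recombinant human PDE10A (10–250 pM range across PDEs) with 20 nM cAMP substrate in 20 mM Tris-HCl pH 7.5, 10 mM MgCl2, 0.1% BSA, compound pre-mixed with enzyme. Ran 60 min at 29 °C. Remaining cAMP read by HTRF, converted to % of uninhibited activity, and IC50 fitted.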

[4] = system: hyperactivity in rats induced by PCP; settings: cited from earlier work
[5] = system: catalepsy in rats; settings: cited from earlier work
[6] = system: amphetamine-induced hyperactivity; settings: rat, in vivo; cited from earlier work
[7] = after systemic administration; cited from earlier work
[8] = Determination of the microsomal half-life, rat liver microsomes; settings: rat, liver microsomes, pH 7.4
[9] = Determination of the microsomal half-life, human liver microsomes; settings: human, liver microsomes, pH 7.4

SMILES | IC50 [3] [nM] | microsomal CLint at 0.5 μM [8] [µL/min/mg] | microsomal CLint at 0.5 μM [9] [µL/min/mg] | other results
O=C1c2c(cccc2N2C3CCC2CNC3)CN1CCc1ccc2ccccc2n1 [Example 103, 7-(3,8-Diaza-bicyclo[3.2.1]oct-8-yl)-2-(2-quinolin-2-yl-ethyl)-2,3-dihydro-isoindol-1-one] | 200 to 500 |  |  | microsomal CLint at 0.5 μM [1]: < 100 µL/min/mg; microsomal CLint at 0.5 μM [2]: < 100 µL/min/mg
COc1ccc(Cc2nccc3cc(OC)c(OC)cc23)cc1OC [Papaverine, papaverine] |  |  |  | hyperactivity induced by PCP [4]: reduced hyperactivity; catalepsy on its own ([5]; papaverine alone): did not cause catalepsy on its own; cataleptic effect of the D2 receptor antagonist haloperidol ([5]; together with haloperidol): potentiated the cataleptic effect; reduction of amphetamine-induced hyperactivity [6]: insignificant; exposure half-life [7]: very short
Cc1ccc2c(c1)nc(CCN1Cc3nccc(-c4cccnc4)c3C1=O)n2C [compound 539, 6-[2-(1,5-Dimethylbenzimidazol-2-yl)ethyl]-4-(3-pyridyl)-7H-pyrrolo[3,4-b]pyridin-5-one] | < 100 | < 100 | < 100 | 
Cc1ccc2c(c1)nc(CCN1Cc3nccc(-c4ccnn4C)c3C1=O)n2C [compound 540, 6-[2-(1,5-Dimethylbenzimidazol-2-yl)ethyl]-4-(2-methylpyrazol-3-yl)-7H-pyrrolo[3,4-b]pyridin-5-one] | < 100 | < 100 | < 100 | 
COc1ccc(-c2ccnc3c2C(=O)N(CCc2nc4ccccc4s2)C3)cc1 [compound 541, 6-[2-(1,3-Benzothiazol-2-yl)ethyl]-4-(4-methoxyphenyl)-7H-pyrrolo[3,4-b]pyridin-5-one trifluoroacetate] | 100 to 200 | 100 to 220 | < 100 | 
O=C1c2c(-c3ccc(F)cc3)ccnc2CN1CCc1nc2ccccc2s1 [compound 542, 6-[2-(1,3-Benzothiazol-2-yl)ethyl]-4-(4-fluorophenyl)-7H-pyrrolo[3,4-b]pyridin-5-one trifluoroacetate] | 100 to 200 | 100 to 220 | < 100 | 
O=C1c2c(-c3cncnc3)ccnc2CN1CCc1nc2ccccc2s1 [compound 544, 6-[2-(1,3-Benzothiazol-2-yl)ethyl]-4-pyrimidin-5-yl-7H-pyrrolo[3,4-b]pyridin-5-one] | 100 to 200 | < 100 | < 100 | 
O=C1c2c(OCF)ccc(-c3cncnc3)c2C(=O)N1CCc1cn2ccccc2n1 [compound 545, 4-(Fluoromethoxy)-2-(2-imidazo[1,2-a]pyridin-2-ylethyl)-7-pyrimidin-5-yl-isoindoline-1,3-dione] | < 100 | < 100 | < 100 | 
COc1ccc(-c2cncnc2)c2c1C(=O)N(CCc1cn3ccccc3n1)C2 [compound 549, 2-(2-Imidazo[1,2-a]pyridin-2-yl-ethyl)-7-methoxy-4-pyrimidin-5-yl-2,3-dihydro-isoindol-1-one trifluoroacetate] | < 100 | < 100 | < 100 | 
O=C1c2c(N3CCOCC3)ccnc2CN1CCc1ccccn1 [compound 550, 4-Morpholino-6-[2-(2-pyridyl)ethyl]-7H-pyrrolo[3,4-b]pyridin-5-one] | 200 to 500 | < 100 | < 100 | 
Cc1ccc(CCN2Cc3nccc(N4CCOCC4)c3C2=O)nc1 [compound 551, 6-[2-(5-Methyl-2-pyridyl)ethyl]-4-morpholino-7H-pyrrolo[3,4-b]pyridin-5-one] | < 100 | < 100 | < 100 | 
CCc1ccn2cc(CCN3Cc4nccc(-c5ccncc5)c4C3=O)nc2c1 [compound 552, 6-[2-(7-Ethylimidazo[1,2-a]pyridin-2-yl)ethyl]-4-(4-pyridyl)-7H-pyrrolo[3,4-b]pyridin-5-one] | < 100 | 100 to 220 | < 100 | 
COc1cccc(CCN2Cc3nccc(-c4ccncc4)c3C2=O)n1 [compound 553, 6-[2-(6-Methoxy-2-pyridyl)ethyl]-4-(4-pyridyl)-7H-pyrrolo[3,4-b]pyridin-5-one] | < 100 | 100 to 220 | 100 to 220 | 
Cc1ccc(CCN2Cc3nccc(N4CCOCC4)c3C2=O)nc1C [compound 554, 6-[2-(5,6-Dimethyl-2-pyridyl)ethyl]-4-morpholino-7H-pyrrolo[3,4-b]pyridin-5-one] | < 100 | 100 to 220 | 100 to 220 | 
CCc1ccn2cc(CCN3Cc4nccc(N5CCOCC5)c4C3=O)nc2c1 [compound 555, 6-[2-(7-Ethylimidazo[1,2-a]pyridin-2-yl)ethyl]-4-morpholino-7H-pyrrolo[3,4-b]pyridin-5-one] | < 100 | < 100 | 100 to 220 | 
